How the values were obtained:
TET1 = biological target: T1, TET1 (Homo sapiens, UniProt Q8NFU7); assay: Activity of full-length TET in HEK293T cells, 5hmC dot blot; assay type: cell-based; conditions: dot-blot with 5hmC antibody
T1 construct: transfected with full-length TET1/3 constructs; expressed in transfected cells; host or cells: HEK293T
Description: (§1) were quantified with Bradford assay (Bio-Rad laboratories) using BSA as a standard and used for
(§2) 14. Expression and activity of full-length TET1 and 3 in HEK293T cells
(§3) To determine the effect of 6A on TET1 and TET3 activity, HEK293T cells were plated in 6 well
(§4) plates and transfected with full-length TET1/3 constructs. Briefly, 2ug of TET1/3 or Empty Vector
(§5) control per well was added to 200µL of JetOptimus buffer and vortexed followed by addition of
(§6) 3µL JetOptimus reagent. The solution was vortexed and left to sit at room temperature for 10
(§7) minutes. The solution was then added to 1.8mL of DMEM and added to the cells in culture plate.
(§8) The cells were left for 4 hours at 37 °C incubator at 5% CO2. The media was aspirated and replaced
(§9) with 2mL of DMEM and 100µM of 6A was added or equivalent volume of DMSO and left in the
(§10) incubator for 24 hours. Cells were then collected and subject to genomic DNA isolation using
(§11) Fisher GeneJET gemoic DNA Purification Kit (Fisher K0721) following manufactures protocol.
(§12) 1000ng of gDNA, as measured via nanodrop, was then subject to Dot Blot experiment. Briefly,
(§13) 20µL of 1000ng gDNA was added to 40µL of 2M NaOH-50mM EDTA solution for 3 minutes at
(§14) room temperature. 140µL of 10mM Tris/1mM EDTA pH 8.0 (TE) buffer and heated at 95 °C for […]

TET3 = biological target: T2, TET3 (Homo sapiens, UniProt O43151); assay: as above; assay type: cell-based; conditions: dot-blot with 5hmC antibody
T2 construct: transfected with full-length TET1/3 constructs; expressed in transfected cells; host or cells: HEK293T
Description: as §1, §2, §3, §4, §5, §6, §7, §8, §9, §10, §11, §12, §13, §14

T1 sequence (Q8NFU7 whole entry): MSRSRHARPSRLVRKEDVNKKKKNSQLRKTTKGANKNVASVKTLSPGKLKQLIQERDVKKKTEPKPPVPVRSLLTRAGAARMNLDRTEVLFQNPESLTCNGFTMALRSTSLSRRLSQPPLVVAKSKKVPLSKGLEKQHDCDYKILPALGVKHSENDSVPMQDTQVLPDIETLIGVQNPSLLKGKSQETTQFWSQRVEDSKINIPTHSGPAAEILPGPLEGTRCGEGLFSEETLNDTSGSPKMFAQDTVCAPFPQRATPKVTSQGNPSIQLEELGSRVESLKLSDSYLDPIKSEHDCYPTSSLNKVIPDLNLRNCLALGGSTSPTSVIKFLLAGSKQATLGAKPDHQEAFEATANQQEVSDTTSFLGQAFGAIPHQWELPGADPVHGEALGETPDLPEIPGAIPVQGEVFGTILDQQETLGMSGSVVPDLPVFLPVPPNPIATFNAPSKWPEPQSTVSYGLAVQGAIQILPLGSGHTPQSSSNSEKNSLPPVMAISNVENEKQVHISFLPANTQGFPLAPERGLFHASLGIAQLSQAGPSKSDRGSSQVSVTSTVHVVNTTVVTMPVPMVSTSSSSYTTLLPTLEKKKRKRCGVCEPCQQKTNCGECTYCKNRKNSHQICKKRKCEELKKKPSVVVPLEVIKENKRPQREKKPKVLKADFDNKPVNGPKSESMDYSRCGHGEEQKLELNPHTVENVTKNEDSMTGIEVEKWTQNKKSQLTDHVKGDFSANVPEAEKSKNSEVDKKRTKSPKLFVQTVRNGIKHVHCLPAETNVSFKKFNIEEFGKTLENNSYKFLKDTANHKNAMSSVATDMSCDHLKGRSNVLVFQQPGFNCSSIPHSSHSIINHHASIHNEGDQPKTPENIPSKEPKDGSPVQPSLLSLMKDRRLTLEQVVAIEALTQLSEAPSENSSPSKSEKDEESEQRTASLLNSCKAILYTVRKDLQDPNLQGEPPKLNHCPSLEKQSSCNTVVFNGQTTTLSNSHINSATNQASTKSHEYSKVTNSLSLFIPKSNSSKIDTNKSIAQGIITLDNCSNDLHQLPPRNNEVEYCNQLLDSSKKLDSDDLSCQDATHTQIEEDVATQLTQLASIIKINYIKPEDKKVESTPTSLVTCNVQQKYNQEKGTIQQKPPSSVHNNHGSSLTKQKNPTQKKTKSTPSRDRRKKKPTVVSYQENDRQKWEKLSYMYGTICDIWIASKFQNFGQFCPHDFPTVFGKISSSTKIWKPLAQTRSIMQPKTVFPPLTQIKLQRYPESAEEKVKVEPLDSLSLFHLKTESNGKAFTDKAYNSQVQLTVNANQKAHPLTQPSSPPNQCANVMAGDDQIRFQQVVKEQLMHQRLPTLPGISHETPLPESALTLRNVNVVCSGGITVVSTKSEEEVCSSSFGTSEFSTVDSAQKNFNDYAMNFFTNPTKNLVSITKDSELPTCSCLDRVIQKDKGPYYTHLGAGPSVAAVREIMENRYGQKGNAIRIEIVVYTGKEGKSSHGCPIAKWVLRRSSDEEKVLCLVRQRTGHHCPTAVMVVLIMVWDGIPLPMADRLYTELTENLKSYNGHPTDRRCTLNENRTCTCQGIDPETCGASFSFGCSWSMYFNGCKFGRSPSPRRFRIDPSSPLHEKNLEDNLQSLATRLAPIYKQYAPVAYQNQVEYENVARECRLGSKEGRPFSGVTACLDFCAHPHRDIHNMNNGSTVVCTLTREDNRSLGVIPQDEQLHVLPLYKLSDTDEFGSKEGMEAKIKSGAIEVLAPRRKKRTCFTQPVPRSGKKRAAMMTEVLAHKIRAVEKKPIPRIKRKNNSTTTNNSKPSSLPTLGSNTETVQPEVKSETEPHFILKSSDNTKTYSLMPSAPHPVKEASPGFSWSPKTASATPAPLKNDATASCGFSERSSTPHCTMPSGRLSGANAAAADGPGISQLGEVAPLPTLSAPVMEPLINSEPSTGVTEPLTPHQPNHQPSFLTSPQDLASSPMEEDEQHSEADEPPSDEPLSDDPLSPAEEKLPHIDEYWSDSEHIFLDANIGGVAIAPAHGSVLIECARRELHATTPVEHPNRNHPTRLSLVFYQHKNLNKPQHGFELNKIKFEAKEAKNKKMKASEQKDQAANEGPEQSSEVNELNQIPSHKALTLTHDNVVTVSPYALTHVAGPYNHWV
T2 sequence (O43151 whole entry): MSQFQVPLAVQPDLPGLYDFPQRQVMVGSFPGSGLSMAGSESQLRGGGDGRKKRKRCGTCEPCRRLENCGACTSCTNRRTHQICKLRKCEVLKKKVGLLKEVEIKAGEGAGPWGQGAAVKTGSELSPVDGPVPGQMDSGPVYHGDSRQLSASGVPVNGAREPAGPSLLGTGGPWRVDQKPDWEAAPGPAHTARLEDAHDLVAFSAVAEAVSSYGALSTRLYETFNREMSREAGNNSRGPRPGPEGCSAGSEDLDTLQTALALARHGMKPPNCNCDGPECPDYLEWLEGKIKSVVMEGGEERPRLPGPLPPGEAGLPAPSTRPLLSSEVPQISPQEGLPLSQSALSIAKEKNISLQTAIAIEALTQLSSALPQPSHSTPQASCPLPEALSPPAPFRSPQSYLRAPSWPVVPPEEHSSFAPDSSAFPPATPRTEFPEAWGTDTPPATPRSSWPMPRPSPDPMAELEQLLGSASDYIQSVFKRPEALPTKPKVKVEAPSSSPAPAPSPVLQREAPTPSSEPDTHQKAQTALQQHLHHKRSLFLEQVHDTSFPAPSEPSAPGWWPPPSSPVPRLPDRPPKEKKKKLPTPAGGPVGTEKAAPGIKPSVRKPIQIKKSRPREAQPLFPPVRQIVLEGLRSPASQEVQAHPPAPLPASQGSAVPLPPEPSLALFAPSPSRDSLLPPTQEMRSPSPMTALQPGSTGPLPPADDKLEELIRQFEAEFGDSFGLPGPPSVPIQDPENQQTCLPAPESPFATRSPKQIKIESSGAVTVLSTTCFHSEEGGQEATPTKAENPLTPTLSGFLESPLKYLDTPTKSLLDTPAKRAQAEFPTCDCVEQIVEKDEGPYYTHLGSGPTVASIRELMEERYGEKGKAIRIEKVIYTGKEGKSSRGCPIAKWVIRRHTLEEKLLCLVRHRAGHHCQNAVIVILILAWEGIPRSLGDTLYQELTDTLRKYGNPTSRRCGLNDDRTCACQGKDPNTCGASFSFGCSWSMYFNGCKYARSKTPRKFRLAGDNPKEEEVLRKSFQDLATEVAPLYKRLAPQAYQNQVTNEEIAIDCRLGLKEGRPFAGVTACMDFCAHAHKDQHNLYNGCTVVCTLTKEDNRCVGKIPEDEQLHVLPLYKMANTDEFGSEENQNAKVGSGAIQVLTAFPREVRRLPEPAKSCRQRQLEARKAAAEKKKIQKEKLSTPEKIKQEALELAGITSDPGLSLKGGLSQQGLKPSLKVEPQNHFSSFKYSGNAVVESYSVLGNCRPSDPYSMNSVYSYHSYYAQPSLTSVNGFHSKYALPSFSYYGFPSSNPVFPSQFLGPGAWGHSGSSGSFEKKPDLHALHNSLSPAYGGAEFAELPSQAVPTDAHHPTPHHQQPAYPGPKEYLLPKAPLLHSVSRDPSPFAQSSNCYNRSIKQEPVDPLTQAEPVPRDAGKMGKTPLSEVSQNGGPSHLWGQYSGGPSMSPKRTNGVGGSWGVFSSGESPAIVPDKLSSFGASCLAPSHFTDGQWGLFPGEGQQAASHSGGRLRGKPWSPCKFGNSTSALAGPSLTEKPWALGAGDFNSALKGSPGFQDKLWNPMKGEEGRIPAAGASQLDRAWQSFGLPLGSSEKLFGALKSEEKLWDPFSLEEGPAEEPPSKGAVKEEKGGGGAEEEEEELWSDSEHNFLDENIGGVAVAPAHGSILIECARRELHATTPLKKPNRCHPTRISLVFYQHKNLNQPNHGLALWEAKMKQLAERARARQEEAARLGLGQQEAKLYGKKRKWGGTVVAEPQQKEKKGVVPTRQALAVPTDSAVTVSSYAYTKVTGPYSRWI

## CCCCCCCCOC(=O)C(=O)NC(CC(C)C)C(=O)O [6A, L-Leu octyl-ester NOG]
TET1
  inhibition of TET1 5hmC formation: No inhibition
TET3
  inhibition of TET3 5hmC formation: No inhibition

Reference: article PMC11783601, “Analogue-Sensitive Inhibition of Histone Demethylases Uncovers Member-Specific Function in Ribosomal Protein Synthesis” (Journal of the American Chemical Society, 2025)
